What all share (assay): NCI-60 cell line screen, 48 h
Experiment [1] concerns NCI-H23 lung.
Experiment [2] relates to UO-31 renal.
The test system of experiment [3] is EKVX NSCLC.
Experiment [4] concerns ACHN renal.
Experiment [5] concerns A498 renal.
Experiment [6] has as its system SK-MEL-2 melanoma.
Experiment [7] deals with OVCAR-8 ovarian.
Experiment [8] deals with SK-MEL-5 melanoma.
Experiment [9] relates to PC-3 prostate.

SMILES strings stand for the structures.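 A five-concentration, 48-hour dose response in 96-well plates underlies each endpoint, interpolated linearly between surrounding concentrations. GI50: concentration for 50% inhibition of growth. Definition used: TGI = concentration required for complete inhibition of growth.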

With `O=c1c2ccccc2oc2c1ccc1ncccc12`, the TGI in [1] is over 100 µM; in experiment [2], 40.9 µM; in experiment [3], 96.9 µM; in experiment [4] it was 23.1 µM; in experiment [5] it was 25 µM; in [6], over 100 µM. Besides, the values for the TGI in experiment [7], in [8] and in experiment [9] were over 100 µM, 28 µM and over 100 µM, respectively.

Regarding `CCOC(=O)C1=CN=C2C(=O)N(c3ccccc3)N(C)C2(C)C1=N` (stereo unspecified), the TGI in experiment [1], in experiment [2], in experiment [3], in [4], in experiment [5] and in [6] was over 100 µM throughout. The TGI in experiment [7], in experiment [8] and in experiment [9] was over 100 µM each time.

Consider `CCCCC/C=C1/CC(CO)(COC(=O)CC(C(C)C)C(C)C)OC1=O` (stereo unspecified), for which the TGI in [1] stood at 31.7 µM; in [2], 24.1 µM; in experiment [3] it was 31.5 µM; in experiment [4], 24.7 µM; in [5], 26.5 µM; in experiment [6], 42.9 µM. Besides, the results for the TGI in [7], in [8] and in [9] were 31 µM, 21.5 µM and 24.6 µM, respectively.

Turning to `CC(C)OC(=O)c1ccc(NCC2=CC(=O)C=CC2=O)cc1Cl`, the TGI in experiment [1] is 33.1 µM; in experiment [2], 13.9 µM; in [3] it was 32.5 µM; in experiment [4] it was 16 µM; in experiment [5], 43.2 µM; in [6] it was over 100 µM. Moreover, the results for the TGI in experiment [7], in experiment [8] and in [9] were over 51.4 µM, over 57.6 µM and over 100 µM, respectively.

For the molecule `Cc1cc(O)c(C(C)C)cc1NC(=O)Nc1cccc2ccccc12`, the TGI in experiment [1] stood at 46.3 µM; in experiment [2] it was 42.9 µM; in [3], 62.7 µM; in experiment [4], 27.8 µM; in experiment [5], 26.5 µM; in experiment [6] it was 30.4 µM. Also, the TGI is over 100 µM in experiment [7], 27.4 µM in [8] and 29.2 µM in experiment [9].

In the case of `CSc1nc2ccccc2c(=O)n1/N=C1\C(=O)N(CN2CCOCC2)c2ccc(Cl)cc21`, the TGI in experiment [1] was over 100 µM; in [2] it was over 100 µM; in experiment [3], 64.8 µM; in experiment [4], over 100 µM; in experiment [5] it was over 100 µM; in experiment [6], 51.6 µM. Further, the TGI in [7], in experiment [8] and in [9] was over 100 µM throughout.

For the molecule `COc1ccc2c(c1)OCC1(O)Cc3ccccc3OC21` (stereo unspecified), the TGI in experiment [1], in experiment [2], in experiment [3], in experiment [4], in experiment [5] and in [6] was over 100 µM throughout. The TGI in [7], in experiment [8] and in experiment [9] was over 100 µM each time.

Turning to `CC(C)(C)c1cc(C(O)(C(=O)O)C(=O)O)cc(C(C)(C)C)c1O`, the TGI in [1], in [2], in [3], in experiment [4], in [5] and in experiment [6] was over 100 µM each time. Also, the TGI in experiment [7], in [8] and in experiment [9] was over 100 µM throughout.

For `Cc1c(CNc2ccc(Cl)c(C(=O)NC(CC(=O)O)C(=O)O)c2)ccc2nc(N)nc(N)c12` (stereo unspecified), the GI50 in experiment [1] was 0.357 µM; in experiment [2] it was 1.86 µM; in [3], 284 µM; in experiment [5] it was 24.9 µM; in [6], over 1000 µM; in experiment [8], 0.36 µM. In [9], the GI50 was under 0.01 µM. The TGI in experiment [1] is over 1000 µM; in experiment [2] it was over 1000 µM; in experiment [3], over 1000 µM; in experiment [4], over 1000 µM; in experiment [5], 680 µM; in experiment [6] it was over 1000 µM. The TGI in experiment [7], in experiment [8] and in experiment [9] was over 1000 µM throughout.

On to `Oc1ccc2c(c1)-c1c(c3cc(O)ccc3n1CCN1CCOCC1)CC2`, for which the TGI in [1] was 73.5 µM; in [2], 57.9 µM; in [3] it was over 100 µM; in experiment [4], over 100 µM; in experiment [5], 60 µM; in experiment [6] it was 37.7 µM. The TGI was 86.8 µM in experiment [7], 30.6 µM in [8] and 54.4 µM in [9].

Turning to `COCn1c2ccc(OC(C)=O)cc2c2c(=O)oc(C)nc21`, the TGI in experiment [1], in experiment [2], in [3], in experiment [4], in experiment [5] and in [6] was over 100 µM throughout. For the same molecule, the TGI in experiment [7], in experiment [8] and in experiment [9] was over 100 µM throughout.

The values are drawn from PubChem BioAssay (NCI).
